Measured values reported in patent US20260273046A1, “METHOD OF VACCINATING FOR CANCER AND DEVICE AND KIT THEREFOR” (priority 2023, published 2026).

How the values were obtained:
B16-OVA melanoma cells = test: Preventive intradermal vaccination, B16-OVA tumor challenge; type: in vivo, C57BL/6J mice; details: two i.d. immunizations, three-week interval, then s.c. inoculation
Experimental: (§4) The efficacy of preventive cancer vaccines was investigated by two intradermal injections with OVA, Nano-11+OVA, NanoST+OVA, or PBS with a 21-day interval. Eleven days following the second injection, mice were inoculated subcutaneously in the flank with 1.0×10^6 B16-OVA, B16, or 2.5×10^6 E.G7-OVA cells suspended in 100 μl of PBS. […] Using a caliper, the length (maximum longitudinal dimension) and width (maximum transverse dimension) of the subcutaneous tumor were measured in order to determine the approximate volume. Tumor volume was calculated using the ellipsoidal formula: V=½×(Length×Width^2). Each tumor was measured by three observers to account for interobserver variability. The tumor endpoint measurements were taken when the tumors reached a volume of 2,000 mm^3, when the tumors became ulcerated, when the body condition scores dropped below 2, or when the mice became moribund. Mice without palpable tumors 32 days after tumor inoculation were considered tumor-free and euthanized.
(§5) To evaluate the contribution of CD4^+ and CD8^+ T cells response to prophylactic-mediated vaccine protection against B16-OVA and E.G7-OVA tumor formation, C57BL/6J mice were vaccinated with OVA, Nano-11+OVA, or NanoST+OVA, and 21 days later the vaccination was repeated. […] The tumor growth and survival of mice were monitored for 33 days post-tumor inoculation.

E.G7-OVA lymphoma cells = test: Preventive intradermal vaccination, E.G7-OVA tumor challenge; type: in vivo, C57BL/6J mice; details: two i.d. immunizations, three-week interval, then s.c. inoculation
Experimental: as §4, §5

B16-OVA tumors = test: Therapeutic intradermal vaccination of B16-OVA-bearing mice; type: in vivo, C57BL/6J mice; details: i.d. vaccination at 8 and 15 days post-tumor inoculation
Experimental: (§6) To mimic therapeutic immunotherapy, C57BL/6J mice were injected subcutaneously (s.c.) with 1.0×10^6 B16-OVA or 2.5×10^6 E.G7-OVA cells on day 0 to establish the tumor model. The B16-OVA-bearing mice received the same intradermal prophylactic vaccination (OVA, Nano-11+OVA, or NanoST+OVA) 8 days after tumor inoculation, followed by a second injection on day 15. The identical vaccination regimen was administered to E.G7-OVA-26 bearing mice at 1 and 21 days after tumor inoculation. The tumor endpoint measurements were recorded as described under prophylactic cancer vaccines. Mice without visible tumors were deemed tumor-free and euthanized 32 or 33 days post-tumor inoculation.

E.G7-OVA tumors = test: Therapeutic intradermal vaccination of E.G7-OVA-bearing mice; details: by day 10
Experimental: as §6

human THP-1 cells = test: CD80 and CD86 expression on stimulated THP-1 cells (flow cytometry); type: cell-based; details: Nano-11 80 μg/ml, ADU-S100 5 μg/ml, 24 and 48 hours
Experimental: For preparation of cells for activation in vitro, human THP-1 cells (TIB-202; American Type Culture Collection Manassas, VA) were cultured in complete RPMI (RPMI 1640 supplemented with 2 mM L-glutamine, 55 μM β-mercaptoethanol, 1×non-essential amino acids, 10 mM HEPES, 100 U/ml penicillin, 100 μg/ml streptomycin, and 0.25 μg/ml amphotericin) with 10% FBS. Cells were seeded at a density of 5×10^5 cells/well in a 96-well plate, stimulated with Nano-11 (80 μg/ml) and ADU-S100 (5 μg/ml) for 24 hours and 48 hours at 37° C. with 5% CO2, and then processed for flow cytometry analysis. […] THP1-Dual cells were subsequently stimulated with Nano-11 (80 μg/ml) and ADU-S100 (5 μg/ml) for 24 hours and 48 hours at 37° C. with 5% CO2, and the supernatants were collected for NF-κB and IRF pathway activation quantification.
(§1) For flow cytometry analysis, single-cell suspensions were prepared from isolated splenocytes or lymph nodes and washed with Cell Staining Buffer (CSB; BioLegend, San Diego, CA). […] Flow cytometry was conducted using an Attune NxT flow cytometer (Invitrogen, Waltham, MA), and the data were analyzed using FlowJo software (FlowJo, Ashland, OR).

NF-κB signaling pathway = test: NF-κB-SEAP reporter in THP1-Dual cells; type: cell-based, human; details: Nano-11 80 μg/ml, ADU-S100 5 μg/ml; FIG. 1E
Experimental: (§2) For preparation of cells for activation in vitro, human THP-1 cells (TIB-202; American Type Culture Collection Manassas, VA) were cultured in complete RPMI (RPMI 1640 supplemented with 2 mM L-glutamine, 55 μM β-mercaptoethanol, 1×non-essential amino acids, 10 mM HEPES, 100 U/ml penicillin, 100 μg/ml streptomycin, and 0.25 μg/ml amphotericin) with 10% FBS. Cells were seeded at a density of 5×10^5 cells/well in a 96-well plate, stimulated with Nano-11 (80 μg/ml) and ADU-S100 (5 μg/ml) for 24 hours and 48 hours at 37° C. with 5% CO2, and then processed for flow cytometry analysis. Similarly, the NF-κB-SEAP and IRF-Luc reporter THP1-Dual cells (InvivoGen, San Diego, CA) were grown at a density of 1×10^5 cells/well in a 96-well plate in complete RPMI supplemented with 10% FBS, 100 μg/ml zeocin, 100 μg/ml normocin, and 10 μg/ml blasticidin. THP1-Dual cells were subsequently stimulated with Nano-11 (80 μg/ml) and ADU-S100 (5 μg/ml) for 24 hours and 48 hours at 37° C. with 5% CO2, and the supernatants were collected for NF-κB and IRF pathway activation quantification.

IRF3 signaling pathway = test: IRF-Lucia luciferase reporter in THP1-Dual cells; type: cell-based, human; details: Nano-11 80 μg/ml, ADU-S100 5 μg/ml; FIG. 1F
Experimental: as §2

[1] = test system: GC B cells and follicular helper T (Tfh) cells; test: Intradermal immunization with OVA: draining lymph node, GC B cells and Tfh cells; type: in vivo, C57BL/6J mice; details: 10 days after second i.d. injection of the ear pinna
Experimental: (§3) For all experiments, six- to eight-week-old female C57BL/6J mice were purchased from the Jackson Laboratory (Bar Harbor, ME). They were housed in ventilated cages with ad libitum access to food and water, with three to four animals per box. The room was kept at 20±2° C. and 50±15% relative humidity, with a light/dark cycle of 12 hours. An acclimatization period of one week was given to the mice before the onset of the experiments. The Purdue University Animal Care and Use Committee gave approval to all animal experiments. Mice received 20 μl of vaccine through intradermal injection into the pinna of the ear. The vaccines were administered again after 7 or 21 days. Inhalational isoflurane was used to induce anesthesia in mice. Blood and tissue samples were collected 10 days after the second immunization, unless otherwise specified.
as §1, with “CA). The staining protocols were conducted in accordance with the manufacturer's instructions, and unless otherwise specified, all mAbs were obtained from BioLegend.” for “CA).”

OVA = test: ELISA of serum OVA-specific IgG, IgG1, IgG2c titers; type: in vivo, C57BL/6J mice; details: 10 days after second i.d. vaccination with OVA
Experimental: as §3
OVA-specific IgG, IgG1, and IgG2c titers were measured by enzyme-linked immunosorbent assays (ELISA) on serum samples taken 10 days following the second vaccination, as previously reported (Hernandez-Franco (2021)). […] The reaction was stopped with the addition of 50 μl 2 M sulfuric acid, and absorbance at 450 nm (OD 450) was determined using the Synergy HT microplate reader (BioTek, Winooski, VT). End-point titers for OVA-specific antibodies were determined when the dilution at which OD 450 nm approached 0.2. […]

[2] = test system: SIINFEKL-specific B3Z CD8+ T cell hybridoma; test: B3Z antigen cross-presentation assay with DC2.4 cells; type: cell-based, murine; details: OVA with 80 μg/ml Nano-11 and/or 5 μg/ml ADU-S100; OD 590
Experimental: The B3Z CD8^+ T cell hybridoma cell line that expresses β-galactosidase under the control of the IL-2 promoter was utilized to detect antigen cross-presentation of the OVA 257-264 (SIINFEKL, InvivoGen, San Diego, CA) peptide (see Cruz et al., Annu. Rev. Immunol. 35: 149-176 (2017), which is incorporated herein by reference). Briefly, DC2.4 cells at 1×10^5 cells/well on 96-well round bottom plates were cultured in complete RPMI containing 10% FBS. The DC2.4 cells were stimulated with 10, 100, or 1,000 μg/ml OVA adsorbed to 80 μg/ml Nano-11 or the NanoST nanoparticle adjuvant comprised of 80 μg/ml Nano-11 and 5 μg/ml ADU-S100 (NanoST) for 3 hours at 37° C. with 5% CO2. Cells in media only or treated with 0.5 μg/ml OVA 257-264 (SIINFEKL) served as negative and positive controls, respectively. The cells were centrifuged at 300×g for 5 minutes and then washed three times with 200 μl of sterile PBS/0.1% BSA. Following fixation with 200 μl of phosphate-buffered saline (PBS)/0.2% paraformaldehyde for 15 minutes at 4° C., cells were washed twice with complete RPMI. Each well was seeded with 1×10^5 B3Z cells in complete RPMI containing 10% FBS for 16 hours at 37° C. with 5% CO2. […] After 2, 4, 6, 8, 12, and 24 hours, the conversion of […] was quantified by measuring the absorbance at 590 nm (OD 590) using a microplate reader (BioTek Instruments, Winooski, VT).

human STING alleles = details: cited from earlier work
[3] = test system: metastatic solid tumors or lymphomas; details: intra-tumoral injection, patients; cited from earlier work
[4] = test system: recurrent or metastatic head and neck squamous cell carcinoma; details: in conjunction with pembrolizumab; cited from earlier work
[5] = test system: tumor-specific CD8+ T cells; details: intratumoral injection; cited from earlier work

| Compound | development of B16-OVA tumors (B16-OVA melanoma cells) | development of E.G7-OVA lymphomas (E.G7-OVA lymphoma cells) | survival of B16-OVA tumor-bearing mice (B16-OVA tumors) | tumor formation (E.G7-OVA tumors) | CD80 expression (human THP-1 cells; FIGS. 1A, 1C) | CD86 expression (human THP-1 cells; FIGS. 1B, 1D) | NF-κB activation (NF-κB signaling pathway) | IRF3 activation (IRF3 signaling pathway) | size of draining lymph node (superficial parotid) [1] | anti-OVA IgG1 titer (OVA) | anti-OVA total IgG titer (OVA) | cross-presentation of OVA and activation of B3Z CD8+ T cells by DC2.4 cells [2] | affinity to human STING alleles (human STING alleles) | anti-tumor activity [3] | dose-limiting toxicities [3] | adverse reactions [4] | anti-tumor efficacy [4] | generation of tumor-specific CD8+ T cells [5] |
| --- | --- | --- | --- | --- | --- | --- | --- | --- | --- | --- | --- | --- | --- | --- | --- | --- | --- | --- |
| OVA: endotoxin-free ovalbumin, model tumor-specific antigen, given unadjuvanted | positive for tumors | positive for tumors | none of the OVA-vaccinated mice survived to day 20 | 100% |  |  |  |  |  |  |  |  |  |  |  |  |  |  |
| Nc1ncnc2c1ncn2[C@@H]1O[C@@H]2COP(=O)([S-])O[C@@H]3[C@H](O)[C@@H](COP([O-])(=S)O[C@H]2[C@H]1O)O[C@H]3n1cnc2c(N)ncnc21.[Na+].[Na+] (stereo partly drawn) [ADU-S100] |  |  |  |  | induced CD80 expression | neither of which had any effect on CD86 expression | activated NF-κB and IRF3 | activated NF-κB and IRF3 | enlarged draining lymph node | enhanced anti-OVA total IgG and IgG1 titers | enhanced anti-OVA total IgG and IgG1 titers | decreased the cross-presentation of OVA | superior affinity to all known human STING alleles | failed to demonstrate conclusive evidence of anti-tumor activity | no dose-limiting toxicities | no adverse reactions | only modest anti-tumor efficacy | leads to the generation of tumor-specific CD8 |
